We go through ten compounds from US10457641B2, “Certain chemical entities, compositions, and methods” (NEUPHARMA, INC., priority 2012, dated 2019).

For test [1], the system named is A549 (adenocarcinomic human alveolar basal epithelial cell). Description: Inhibition of cancer cell growth, MTT assay, A549. Conditions: 72 h treatment. Type of test: cell-based. The procedure: (§1) A375 (human melanoma cell, BRAF V600E Mutant), A549 (adenocarcinomic human alveolar basal epithelial cell) and Colo-205 (human colon carcinoma cell) were purchased from ATCC (American Type Culture Collection, Manassas, Va.). All cell lines were maintained in RPMI 1640 (Hyclone) or DMEM (Hyclone) supplemented with 10% fetal bovine serum (FBS, Hyclone), glutamine (2 mM, Hyclone), and antibiotics (penicillin 100 U/mL and streptomycin 50 μg/mL) at 37° C. in a humidified atmosphere of 5% CO2 in air.
(§2) To test IC50 of inhibition of individual compounds against each cell line, A375, A549 and Colo-205 cells were first plated in 96-well plates at densities of 2000-4000 cells/well. Cells were then incubated to allow cells to adhere and grow for 24 h. Cells were then treated with a series of concentrations of compounds for 72 h. The highest concentration of compounds was 20 μM. Cells were then removed from the incubator and medium was removed by inverting and tapping the plates. 100 μL of MTT (0.5 mg/ml) or 10 μL or MTS was added to each well followed by an incubated at 37° C. for 4 h. Then MTT was removed and 200 μL of DMSO was added to each well, followed by reading the ODs at 570 nm after a 5 second shaking cycle in a 96-well spectrophotometer. For MTS method, MTS was not removed, and the incubated solutions were directly put in a 96-well spectrophotometer for the reading of the ODs at 492 nm.
(§3) IC50 was calculated by plotting the concentration of compound vs the percentage of inhibition in treated wells using GraphPad Prism 5. […] The scale utilized in Table 3 is as follows: +++ less than 1 μM; ++ between 1 μM and 5 μM; and + greater than 5 μM.

Test [2] has as its system A375 (human melanoma cell, BRAF V600E Mutant). Briefly: Inhibition of cancer cell growth, MTT assay, A375. The format is cell-based. Conditions: A-375, 72 h treatment. The procedure: as §1, §2, §3
In test [3] the test system is Colo-205 (human colon carcinoma cell). Description: Inhibition of cancer cell growth, MTS assay, Colo-205. Type of test: cell-based. Conditions: 72 h treatment. As for the experimental part: as §1, §2, §3
The target in test [4] is T1, BRAF V600E (Homo sapiens, UniProt P15056, V600E).
T1 construct: purchased Invitrogen
Briefly: Z'-LYTE kinase inhibition assay, BRAF V600E. Type of test: biochemical. Conditions: 1 μM compound; Z'-LYTE method. As for the experimental part:
(§4) Inhibitory activities of compounds against BRAF or BRAF V600E were measured by Invitrogen using Z′-LYTE® Method as briefly described in the following.
(§5) 4× Test compounds are dissolved in 1% DMSO. […] ATP solutions are diluted to a 4×ATP working concentration in Kinase Buffer (50 mM HEPES pH 7.5, 0.01% BRIJ-35, 10 mM MgCl2, 1 mM EGTA).
(§6) Reaction starts by 30-second shaking of mixture consisting of 2.5 μL 4× test compound, 2.5 μL 2× kinase reaction mixture and 2.5 μL 4×ATP Solution on Bar-coded Corning, low volume NBS, black 384-well plate (Corning Cat. #3676). Then the mixture is incubated for 60-minute at room temperature for the kinase reaction, followed by addition of 5 μL of a 1:1024 dilution of development reagent A and 30-second plate shake. The mixture is then incubated for another 60-minute at room temperature for development reaction. Finally fluorescence is read by plate reader.

In test [5] the target is T2, BRAF (Homo sapiens, UniProt P15056).
T2 construct: purchased Invitrogen
Description: Z'-LYTE kinase inhibition assay, BRAF. Type of test: biochemical. The conditions noted are these: 1 μM compound; Z'-LYTE method. The procedure: as §4, §5, §6

T1 sequence (P15056 whole entry V600E): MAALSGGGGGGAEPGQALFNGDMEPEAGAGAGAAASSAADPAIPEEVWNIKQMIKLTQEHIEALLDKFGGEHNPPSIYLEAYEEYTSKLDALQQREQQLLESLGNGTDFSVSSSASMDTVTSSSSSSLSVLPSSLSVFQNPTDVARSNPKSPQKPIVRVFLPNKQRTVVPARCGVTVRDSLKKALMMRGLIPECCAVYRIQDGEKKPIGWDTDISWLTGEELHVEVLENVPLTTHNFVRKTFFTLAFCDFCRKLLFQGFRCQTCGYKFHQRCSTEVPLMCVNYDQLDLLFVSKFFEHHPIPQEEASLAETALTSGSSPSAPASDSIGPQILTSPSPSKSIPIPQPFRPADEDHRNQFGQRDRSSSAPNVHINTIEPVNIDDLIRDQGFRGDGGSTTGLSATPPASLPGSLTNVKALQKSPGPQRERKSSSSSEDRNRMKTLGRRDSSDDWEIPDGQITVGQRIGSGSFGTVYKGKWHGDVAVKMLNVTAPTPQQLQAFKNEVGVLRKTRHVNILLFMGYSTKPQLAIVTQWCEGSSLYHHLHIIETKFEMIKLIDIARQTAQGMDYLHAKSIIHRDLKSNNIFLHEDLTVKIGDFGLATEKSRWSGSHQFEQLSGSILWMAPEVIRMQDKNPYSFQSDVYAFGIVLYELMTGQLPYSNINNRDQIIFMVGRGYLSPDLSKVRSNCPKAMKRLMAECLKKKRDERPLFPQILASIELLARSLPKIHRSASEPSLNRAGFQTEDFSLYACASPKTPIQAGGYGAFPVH
T2 sequence (P15056 whole entry): as the sequence (P15056 whole entry V600E) above, with E600V counted along it

On to `O=C(Nc1cc(F)c(F)c(C(=O)c2ccc3ncccc3c2)c1F)c1ccc(F)c(F)c1` [Compound C009, 3,4-difluoro-N-(2,4,5-trifluoro-3-(quinoline-6-carbonyl)phenyl)benzamide], for which the IC50 in test [1], in test [2] and in test [3] was over 5 µM each time. Also, the inhibition at 1 µM in test [4] was under 70%.
Take `O=C(Nc1cc(F)cc(F)c1)Nc1cc(F)c(F)c(C(=O)c2ccc3ncccc3c2)c1F` [Compound C005, 1-(3,5-difluorophenyl)-3-(2,4,5-trifluoro-3-(quinoline-6-carbonyl)phenyl)urea]: the IC50 in test [1] is 1 to 5 µM; in test [2], 1 to 5 µM; in test [3], over 5 µM. The same compound showed an inhibition at 1 µM in test [4] of under 70%.
For the compound `O=C(Nc1cc(F)c(F)c(C(=O)c2ccc3ncccc3c2)c1F)c1ccc(F)cc1` [Compound C007, 4-fluoro-N-(2,4,5-trifluoro-3-(quinoline-6-carbonyl)phenyl)benzamide], the IC50 in test [1], in test [2] and in test [3] was over 5 µM in each case. For the same compound, the inhibition at 1 µM in test [4] was under 70%.
`O=C(Nc1cc(F)c(F)c(C(=O)c2ccc3ncccc3c2)c1F)c1cc(F)cc(F)c1` [Compound C008, 3,5-difluoro-N-(2,4,5-trifluoro-3-(quinoline-6-carbonyl)phenyl)benzamide]: the IC50 in test [1], in test [2] and in test [3] was over 5 µM each time. In addition, the inhibition at 1 µM in test [4] and in test [5] was under 70% throughout.
`O=C(Nc1cc(F)c(F)c(C(=O)c2ccc3ncccc3c2)c1F)c1cccc(F)c1` [Compound C006, 3-fluoro-N-(2,4,5-trifluoro-3-(quinoline-6-carbonyl)phenyl)benzamide]: the IC50 in test [1], in test [2] and in test [3] was over 5 µM each time. Moreover, the inhibition at 1 µM in test [4] is 70 to 89%; in test [5], under 70%.
For `CCCS(=O)(=O)Nc1cc(F)c(F)c(C(=O)c2ccc3ncccc3c2)c1F` [Compound C001, N-(2,4,5-trifluoro-3-(quinoline-6-carbonyl)phenyl)propane-1-sulfonamide], the figures for the IC50 in test [1], in test [2] and in test [3] were over 5 µM, under 1 µM and 1 to 5 µM, respectively. Besides, the inhibition at 1 µM was over 89% in test [4] and 70 to 89% in test [5].
`O=C(Nc1ccc(F)c(F)c1)Nc1cc(F)c(F)c(C(=O)c2ccc3ncccc3c2)c1F` [Compound C004, 1-(3,4-difluorophenyl)-3-(2,4,5-trifluoro-3-(quinoline-6-carbonyl)phenyl)urea]: the results for the half-inhibitory concentration (IC50) in test [1], in test [2] and in test [3] were 1 to 5 µM, over 5 µM and over 5 µM, respectively. In test [4], the inhibition at 1 µM is under 70%.
For the compound `CCCS(=O)(=O)Nc1cc(F)c(F)c(C(=O)c2ccc3ncncc3c2)c1F` [Compound C010, N-(2,4,5-trifluoro-3-(quinazoline-6-carbonyl)phenyl)propane-1-sulfonamide], the IC50 in test [1] is over 5 µM; in test [2], under 1 µM; in test [3], under 1 µM. Further, the inhibition at 1 µM in test [4] and in test [5] was over 89% throughout.
Take `O=C(Nc1cccc(F)c1)Nc1cc(F)c(F)c(C(=O)c2ccc3ncccc3c2)c1F` [Compound C002, 1-(3-fluorophenyl)-3-(2,4,5-trifluoro-3-(quinoline-6-carbonyl)phenyl)urea]: the figures for the IC50 in test [1], in test [2] and in test [3] were 1 to 5 µM, over 5 µM and over 5 µM, respectively. Moreover, in test [4], the inhibition at 1 µM is under 70%.
`O=C(Nc1ccc(F)cc1)Nc1cc(F)c(F)c(C(=O)c2ccc3ncccc3c2)c1F` [Compound C003, 1-(4-fluorophenyl)-3-(2,4,5-trifluoro-3-(quinoline-6-carbonyl)phenyl)urea]: the IC50 in test [1], in test [2] and in test [3] was over 5 µM each time. For the same compound, the inhibition at 1 µM in test [4] and in test [5] was under 70% in each case.
